# Measured values from patent US11452723B2, “Combination dosage form of a mu opioid receptor antagonist and an opioid agent” (THERAVANCE BIOPHARMA R&D IP, LLC, priority 2015, dated 2022).
# Structures can show the parent of a compound that is named as a salt.
# Key:
# [1] = Excipient compatibility study: chemical stability of films at 40° C./88% RH by HPLC; assay type: physicochemical; settings: T = 0; no coating material (ratio N/A)
# Description: The compatibility of axelopran with four compositions of commercial coating materials was studied as a function of ratio of coating material to axelopran. Mixtures of axelopran sulfate and the materials of Table 15 were dried at 40° C. in weighing boats to form films. Chemical stability of the films stored at accelerated conditions of 40° C. and 88% relative humidity for 2 weeks were analyzed by HPLC.
# mu opioid receptor = biological target: T1, mu opioid receptor (Homo sapiens, UniProt P35372); settings: non-cancer pain patients on a stable opioid regimen; cited from earlier work
# T1 construct: host or cells: patients (endogenous peripheral/gastrointestinal receptors)
# T1 sequence (P35372 whole entry): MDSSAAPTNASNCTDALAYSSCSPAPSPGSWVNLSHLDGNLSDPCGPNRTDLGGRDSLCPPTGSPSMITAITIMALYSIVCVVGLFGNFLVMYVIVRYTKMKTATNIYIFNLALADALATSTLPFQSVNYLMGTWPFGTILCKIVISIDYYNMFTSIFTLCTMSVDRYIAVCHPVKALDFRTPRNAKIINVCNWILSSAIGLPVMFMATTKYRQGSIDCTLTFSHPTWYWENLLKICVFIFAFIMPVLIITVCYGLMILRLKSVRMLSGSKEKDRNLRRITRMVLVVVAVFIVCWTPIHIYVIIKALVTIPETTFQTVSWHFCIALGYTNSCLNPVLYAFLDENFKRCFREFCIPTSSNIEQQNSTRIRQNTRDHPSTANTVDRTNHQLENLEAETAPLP
# [2] = as described in U.S. Pat. No. 7,943,772; cited from earlier work
Structure (SMILES),Axelopran Assay [1] [% Area],amelioration of symptoms of opioid induced constipation (in words) (mu opioid receptor),stability of solid form (in words) [2]
"NC(=O)c1cccc([C@H]2C[C@H]3CC[C@@H](C2)N3CCN(CC2CCCCC2)C(=O)[C@@H](O)CO)c1 [axelopran, 3-((1R,3r,5S)-8-(2-((cyclohexylmethyl)((2S)-2,3-dihydroxypropanoyl)amino)ethyl)-8-azabicyclo[3.2.1]octan-3-yl)benzamide]",99.70,ameliorate the symptoms of OIC in non-cancer pain patients on a stable opioid regimen without compromising analgesia,
NC(=O)c1cccc([C@H]2C[C@H]3CC[C@@H](C2)N3CCN(CC2CCCCC2)C(=O)[C@@H](O)CO)c1 [amorphous axelopran],,,not sufficiently stable for use in a drug product
NC(=O)c1cccc([C@H]2C[C@H]3CC[C@@H](C2)N3CCN(CC2CCCCC2)C(=O)[C@@H](O)CO)c1 [axelopran sulfate],,,forms a stable crystalline form
